In series [1] the target is T1, human EGF-receptor kinase (Homo sapiens, UniProt P00533).
T1 construct: GST; made in house; host or cells: Sf9 insect cells (baculovirus)
The experiment in a line: Inhibition of human EGF-receptor kinase (enzyme assay, ELISA read-out). The following applies: cytoplasmic tyrosine kinase domain as GST fusion protein, substrate pEY/bio-pEY, 30 minutes at ambient temperature. Format: biochemical. How it is done: The inhibition of human EGF-receptor kinase was determined using the cytoplasmic tyrosine kinase domain (methionine 664 to alanine 1186 based on the sequence published in Nature 309 (1984), 418). For this the protein was expressed in Sf9 insect cells as GST fusion protein using the Baculovirus expression system.
The enzyme activity was measured in the presence or absence of the test compounds in serial dilutions. The polymer pEY (4:1) obtained from SIGMA was used as the substrate. Biotinylated pEY (bio-pEY) was added as the tracer substrate. 100 μl of reaction solution contained 10 μl of the inhibitor in 50% DMSO, 20 μl of the substrate solution (200 mM HEPES pH 7.4, 50 mM magnesium acetate, 2.5 mg/ml poly(EY), 5 μg/ml bio-pEY) and 20 μl of enzyme preparation. The enzyme reaction was started by the addition of 50 μl of a 100 μM ATP solution in 10 mM of magnesium chloride. The dilution of the enzyme preparation was adjusted so that the incorporation of phosphate in the bio-pEY was linear in terms of time and quantity of enzyme. The enzyme preparation was diluted in 20 mM HEPES pH 7.4, 1 mM EDTA, 130 mM common salt, 0.05% Triton X-100, 1 mM DTT and 10% glycerol.
The enzyme assays were carried out at ambient temperature over a period of 30 minutes and ended by the addition of 50 μl of a stopping solution (250 mM EDTA in 20 mM HEPES pH 7.4). 100 μl were placed on a streptavidine-coated microtitre plate and incubated for 60 minutes at ambient temperature. Then the plate was washed with 200 μl of a wash solution (50 mM Tris, 0.05% Tween 20). After the addition of 100 μl of an HRPO-labelled anti-PY antibody (PY20H Anti-PTyr:HRP made by Transduction Laboratories, 250 ng/ml) the preparation was incubated for 60 minutes. Then the microtitre plate was washed three times with 200 μl of wash solution. The samples were then combined with 100 μl of a TMB-peroxidase solution (A:B=1:1, Kirkegaard Perry Laboratories). After 10 minutes the reaction was stopped. The extinction was measured at OD450 nm with an ELISA reader. All the results were measured three times.
The data were adapted by iterative calculation using an analytical pogramme for sigmoidal curves (Graph Pad Prism Version 3.0) with a variable Hill pitch. […] The active substance concentration which inhibits the activity of EGF receptor kinase by 50% (IC50) was derived from the curves.
(An ELISA detects its analyte on a solid surface through an enzyme-linked reagent.)

The results in this text go back to patent US6924285B2, “Bicyclic heterocyclic compounds, pharmaceutical compositions containing these compounds, their use and process for preparing them” (Boehringer Ingelheim Pharma GmbH & Co., priority 2002, dated 2005).

T1 sequence (P00533 688-1210): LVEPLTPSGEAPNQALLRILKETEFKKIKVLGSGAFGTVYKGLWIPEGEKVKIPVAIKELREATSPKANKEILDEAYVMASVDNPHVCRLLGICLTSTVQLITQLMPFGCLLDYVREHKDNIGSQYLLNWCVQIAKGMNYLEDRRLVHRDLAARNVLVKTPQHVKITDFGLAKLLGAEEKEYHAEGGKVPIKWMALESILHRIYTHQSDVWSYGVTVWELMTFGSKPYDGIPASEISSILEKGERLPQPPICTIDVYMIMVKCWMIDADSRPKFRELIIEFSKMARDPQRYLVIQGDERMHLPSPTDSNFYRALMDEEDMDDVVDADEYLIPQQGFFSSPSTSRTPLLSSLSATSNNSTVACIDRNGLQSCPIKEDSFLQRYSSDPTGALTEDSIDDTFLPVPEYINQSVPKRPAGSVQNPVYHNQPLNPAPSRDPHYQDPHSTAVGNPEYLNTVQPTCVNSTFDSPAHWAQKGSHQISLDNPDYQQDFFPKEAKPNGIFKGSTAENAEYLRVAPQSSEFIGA

With `COc1cc2ncnc(Nc3ccc(F)c(Cl)c3)c2cc1O[C@H]1CC[C@@H](N)CC1` [Example 2, 4-[(3-chloro-4-fluoro-phenyl)amino]-6-(cis-4-amino-cyclohexan-1-yloxy)-7-methoxy-quinazoline x Trifluoroacetic Acid], the melting point is 232 °C. In series [1], the IC50 was determined as 4.5 nM. Turning to `COc1cc2ncnc(Nc3ccc(F)c(Cl)c3)c2cc1O[C@H]1CC[C@@H](NS(C)(=O)=O)CC1` [Example 3, 4-[(3-chloro-4-fluoro-phenyl)amino]-6-(cis-4-methanesulphonylamino-cyclohexan-1-yloxy)-7-methoxy-quinazoline], the melting point worked out at 234 °C. Also, in series [1], the concentration for half-maximal inhibition (IC50) amounted to 0.9 nM. For `Fc1ccc(Nc2ncnc3cc(OCCCN4CCOCC4)c(OC4CCOCC4)cc23)cc1Cl` [Example 7, 4-[(3-chloro-4-fluoro-phenyl)amino]-6-(tetrahydropyran-4-yloxy)-7-[3-(morpholin-4-yl)-propyloxy]-quinazoline], the melting point amounted to 205 °C. Still for that read-out and setting: the figure for `CN(C)C(=O)CN1CCC(Oc2ccc3ncnc(Nc4ccc(F)c(Cl)c4)c3c2)CC1` [Example 10, 4-[(3-chloro-4-fluoro-phenyl)amino]-6-{1-[(dimethylamino)carbonylmethyl]-piperidin-4-yloxy}-quinazoline] is 233 °C; for `COc1cc2ncnc(Nc3ccc(F)c(Cl)c3)c2cc1OC1CCN(C(=O)N2CCCOCC2)CC1` [Example 12, 4-[(3-chloro-4-fluoro-phenyl)amino]-6-{1-[([1,4]oxazepan-4-yl)carbonyl)-piperidin-4-yloxy}-7-methoxy-quinazoline] it is 171 °C.

As a reminder, the melting point is the temperature, or range, at which the solid turns liquid. In general, IC50 refers to the midpoint of a concentration-inhibition curve.
